Where two headings read alike, the source gives them in different places.
Assays:
[1] = target: T1, PPARγ (Homo sapiens, UniProt P37231); experiment: SPR-based Biacore binding assay on immobilized PPARγ; settings: injected 0.5 to 10 µM
T1 sequence (P37231 1-505): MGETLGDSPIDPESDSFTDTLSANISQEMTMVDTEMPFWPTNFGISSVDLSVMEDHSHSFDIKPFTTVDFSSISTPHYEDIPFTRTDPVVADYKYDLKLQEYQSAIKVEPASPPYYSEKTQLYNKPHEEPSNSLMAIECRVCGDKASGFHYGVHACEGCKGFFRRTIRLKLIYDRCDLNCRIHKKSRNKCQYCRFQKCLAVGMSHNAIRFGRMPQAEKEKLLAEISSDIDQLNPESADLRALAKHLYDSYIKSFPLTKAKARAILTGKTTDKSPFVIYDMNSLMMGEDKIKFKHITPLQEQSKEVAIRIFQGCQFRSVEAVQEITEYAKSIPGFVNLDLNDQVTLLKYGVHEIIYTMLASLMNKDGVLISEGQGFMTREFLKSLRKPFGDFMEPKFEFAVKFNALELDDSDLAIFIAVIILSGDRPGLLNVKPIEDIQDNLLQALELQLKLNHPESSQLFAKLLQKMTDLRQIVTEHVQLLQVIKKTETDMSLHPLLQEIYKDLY
Method: […]. SPR analyses were carried out on a BIACORE 3000 instrument (GE-Healthcare). A PPARγ, surface was generated using a research-grade CM5 sensor chips (GE Healthcare). The protein (100 µg/ml in 10 mM CH3COONa, pH 5.0) was immobilized using a standard amine-coupling protocol, to obtain densities of 4 kRU. Testing compounds were dissolved in 100% DMSO to obtain 10 mM solutions, and then diluted in PBS containing variable amounts of DMSO, achieving a final DMSO concentration of 0.1%. For each molecule a five-point concentration series (0.5 µM, 1 µM, 2,5 µM, 5 µM and 10 µM) was set up. SPR experiments and data elaboration were carried out as reported elsewhere.

[2] = test system: STZ-NA-induced diabetic rats; experiment: Antidiabetic activity in STZ-NA-induced type 2 diabetic rats; settings: for HbA1c / blood glucose levels / HDL-C / Hb levels / TC, TG, VLDL-C and LDL-C: 15 days; for blood glucose levels: vs diabetic control rats; for HDL-C / Hb levels / TC, TG, VLDL-C and LDL-C: vs disease control (STZ + NA)
Method: The test dose was fixed based on the predicted LD50 value. […] Diabetic rats were orally treated with the test compounds at a dose of 36 mg/kg body weight for a period of 15 days. Fasting blood glucose of control, diabetic-untreated and diabetic-treated rats were tested on Days 1, 3, 7 and 15 of the treatment period (Fig. 6A).
Male Wistar strain rats weighing about 160–200 g were used for animal studies. […] Rats were provided with rodent diet and water ad libitum. […] The animals were allowed to drink 5% glucose solution overnight to prevent STZ-NA-induced hypoglycemia[82],[83]. The rats were considered as diabetic if their blood glucose levels were above 250 mg/dL on the 3rd day after STZ-NA injection. The rats were divided into four groups of six animals in each group. Control animals received normal saline (Group I). Diabetic rats received STZ-NA injection (Group II). […] The blood glucose level of each group was checked at 1, 3, 7 and 15 Day by withdrawing blood from tail vein of the animal using glucose meter (ACCu-Chek active, Roche, Diagnostics USA).
After pharmacological screening for antidiabetic activity, the animals were subjected to overnight fasting and blood was collected from retro-orbital region under light anaesthesia for performing various biochemical experiments. All the biochemical experiments were performed using commercially available kits. Total Hb was estimated by cyanomethaemoglobin method, while HbA1c was estimated from whole blood using commercially available kits following the manufacturer guidelines (ERBA Diagnostics Inc, Accurex Biomedical Pvt. Ltd., Coral clinical systems, India). TG concentration was determined by GPO-POD enzymatic-colorimetric method. TC level was measured by the end point, CHOD-POD colorimetric methods. HDL-C was assayed by the method reported earlier. VLDL-C and LDL-C in plasma were calculated by the Friedewald formula: VLDL-C = TG/5; LDL-C = TC-(HDL-C + VLDL-C)[88]. Levels of serum urea, uric acid, and creatinine were measured using commercially available kits[89].
Rats were sacrificed under light anesthesia using diethylether at the end of the pharmacological and biochemical studies. […] Then, the tissue was sliced out into sections of 5 µm thickness by a rotator microtome and stained with hematoxylin-eosin. Obtained sections were examined by a Leica DME microscope, and representative photomicrographs were taken by a 7.1 megapixel Canon Power Shot S70 digital camera.

[3] = test system: NIH/3T3 mouse embryonic fibroblast cells; experiment: XTT cytotoxicity assay on NIH/3T3 cells; settings: for cell viability compared with Rosiglitazone: especially at 316 and 1000 μM
Method: XTT is reduced to soluble formazan by this enzyme and formazan is quantified and directly proportional to the number of viable cells. […] NIH/3T3 cells were seeded at 1 × 10^4 cells into each well of 96-well plates. […] The XTT assay (Xenometrix, Allschwil, Switzerland) was performed according to the manufacturer’s instructions, after 24 h incubation with the compounds. The absorbance was determined after 2 h incubation at 480 nm with a reference wavelength of 680 nm using a microplate reader (BioTek, USA). […] The stock solutions of the compounds were prepared in DMSO and further dilutions were made with fresh culture medium. The final DMSO concentration was under 0.1%. Rosiglitazone and Pioglitazone were used as positive controls. All data were obtained from 3 independent experiments in quadruplicates.

[4] = target: T2, human PPARγ (hPPARγ) (Homo sapiens, UniProt P37231); experiment: GAL-4 PPAR chimeric receptor transactivation assay in transiently transfected HepG2 cells; format: cell-based; settings: for EC50: Gal4-hPPARγ-LBD, HepG2 cells, concentration-response curve; for Emax: maximum induction of Rosiglitazone defined as 100%; for agonist activity on hPPARα, hPPARγ, hPPARβ/δ subtypes: tested at 5 μM and 25 μM, compared with reference agonists
T2 construct: expressed in transfected cells; host or cells: HepG2 (human hepatoblastoma), transient calcium phosphate transfection
T2 sequence (P37231 238-503 limits assumed): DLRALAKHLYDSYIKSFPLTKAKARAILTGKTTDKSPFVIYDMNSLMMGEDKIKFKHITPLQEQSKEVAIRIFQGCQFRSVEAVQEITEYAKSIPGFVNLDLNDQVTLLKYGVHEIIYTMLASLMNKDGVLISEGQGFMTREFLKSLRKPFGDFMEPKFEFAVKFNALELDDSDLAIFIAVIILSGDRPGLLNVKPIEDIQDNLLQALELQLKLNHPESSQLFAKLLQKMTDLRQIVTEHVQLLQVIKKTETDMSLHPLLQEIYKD

[5] = 36 mg/kg, light microscopy, hematoxylin-eosin

SMILES | Kd [1] | HbA1c ([2]; 36 mg/kg oral) | blood glucose levels ([2]; 36 mg/kg oral) | HDL-C ([2]; 36 mg/kg oral) | Hb levels ([2]; 36 mg/kg oral) | TC, TG, VLDL-C and LDL-C ([2]; 36 mg/kg oral) | histological changes of pancreas (islets, β-cells) [2, 5] | liver histopathology [2, 5] | IC50 ([3]; NIH/3T3 cells, XTT, 24 h incubation) | EC50 [4] | Emax [4] | agonist activity on hPPARα, hPPARγ, hPPARβ/δ subtypes [4] | IC50 ([3]; Mus musculus, NIH3T3, 24 h) | cell viability compared with Rosiglitazone ([3]; NIH/3T3 cells) | Emax ([4]; HepG2, read-out: Emax) | blood glucose lowering activity compared with standard ([2]; 36 mg/kg oral, data for 15th Day)
CCCCNC(=O)CN1C(=O)S/C(=C\c2ccccc2)C1=O [1a] | 38.3 ± 1.8 µM | significantly prevented the increase | significantly reduced | increase | significant increase | significant decrease | restored to near normal | no hepatic abnormalities | > 1000 µM | 7 ± 1.3 µM | 5.3 ± 0.3% | weak to moderate selective activity towards PPARγ |  |  |  | 
CCN(CC)C(=O)CN1C(=O)S/C(=C\c2ccccc2)C1=O [1i] | 35.7 ± 2.6 µM | significantly prevented the increase | significantly reduced | increase | significant increase | significant decrease | restored to near normal |  |  | 9.6 ± 0.8 µM |  | weak to moderate selective activity towards PPARγ | > 1000 µM | significantly higher viability than Rosiglitazone | 23 ± 5% | 
CCCCNC(=O)CN1C(=O)S/C(=C\c2ccc(Cl)cc2)C1=O [3a] | 32 ± 1.5 µM | significantly prevented the increase | significantly reduced | increase | significant increase | significant decrease | restored to near normal |  |  | 5.9 ± 0.6 µM |  | selective activity towards PPARγ | 966 ± 10 µM | significantly higher viability than Rosiglitazone | 31.6 ± 1% | equivalent to the standard drug Pioglitazone
